“Also recorded” adds a separate entry of the source.
Tests used:
[1] = cited from earlier work
[2] = test system: CD19-positive Jurkat target cells; assay: Lysis of target cells by split CAR-expressing primary human T cells with or without dimerizer; type: cell-based; conditions: 50 μM caffeine or medium only, E:T 2:1, 4 h; split CARs with dfM1-1 or dfM1-2 and acVHH V104D
Description: 4 different architectures of split CARs consisting of two chains were investigated per acVHH variant where both the first and second chain of the split CAR is either monomeric or dimeric. A dimeric first CAR chain entails an FMC63 scFv followed by a linker followed by a Flag tag followed by a CD8a hinge and transmembrane domain followed by a 4-1BB co-stimulatory domain followed by a linker followed by acVHH dfM1-1 or dfM1-2 (SEQ ID NO:34 where ac VHH is dfM1-1). The only difference for a monomeric first CAR chain is the mutation of the two cysteine residues in the CD8a hinge to serine residues (SEQ ID NO:35). A dimeric second chain entails a DAP10 extracellular domain followed by a CD8 transmembrane domain followed by 2 amino acids followed by a 4-1BB co-stimulatory domain followed by a linker followed by ac VHH V104D followed by a linker followed by CD3z signaling domain followed by a linker followed by m Cherry (SEQ ID NO:36). […]
After electroporation, the cells were incubated for 6 h at 37° C. […] The cells were co-cultured for 4 h at 37° C., then 150 μg/mL luciferin (Xenolight D-luciferin, Perkin Elmer) was added to each well and luminescence was measured after 20 min with an ENSPIRE Multimode plate reader (Perkin Elmer). Specific lysis was calculated according to the formula:

[3] = test system: acVHH-V104D/dfM1-1; assay: NanoBiT assay in Jurkat T cells, small molecule titration of acVHH-V104D/dfM1-1; type: cell-based, llama
Excerpt: (§1) The ac VHH variants were N-terminally fused to an extracellular globular domain used to assess expression, as well as a transmembrane domain, and C-terminally fused to a subunit of the split NanoLuc (NanoBiT® system), Promega. Thus, the resulting fusion protein consisted of an extracellular globular domain, followed by a transmembrane domain and intracellular ac VHH variants followed by a subunit of split NanoLuc luciferase.
(§2) The different chains built were as follows: the first polypeptide chain comprised truncated EGFR extracellular and transmembrane domain, followed by a 2×G4S linker and cither ac VHH-V104D or ac VHH-WT, followed by a linker (SEQ ID NO:31) and 11S NanoBiT® “Large BiT”, whereas the second polypeptide chain comprised truncated HER2 extracellular and transmembrane domain, followed by a linker (SEQ ID NO:32) and either ac VHH-V104D or ac VHH-WT or ac VHH-M1 or acVHH-M2 or dfM1-1 or dfM1-2, followed by a linker (SEQ ID NO:33) and 114 NanoBiT® “Small BiT”. […] The principle of the assay is as follows: upon binding of (i.e. dimerization) of the respective ac VHH variants, the fused NanoLuc luciferase subunits are brought into close proximity (the two subunits being fused to the two different polypeptide chains, respectively), thus resulting in a functional luciferase enzyme, whose activity can be measured. […]

[4] = test system: Raji target cells; assay: IFN-γ and IL-2 secretion (ELISA) of transduced split CAR T cells co-cultured with Raji target cells; type: cell-based, human; conditions: medium, 0.1 μM or 100 μM caffeine, overnight, E:T 2:1
Description: The nucleotide sequence encoding the monomeric CAR chain 1 (SEQ ID NO:34) containing dfM1-1 was fused to the nucleotide sequence encoding the dimeric CAR chain 2 (SEQ ID NO:36) or to the nucleotide sequence encoding monomeric CAR chain 2 (SEQ ID NO:37) via a furin cleavage site and 2A sequence (SEQ ID NO:41) and cloned into a third generation lentiviral expression vector with puromycin resistence gene (pCDH, System Biosciences). This plasmid, along with second-generation viral packaging plasmids (psPAX2 and pMD2.G, Addgene plasmids #12260 and #12259), was co-transfected in Lenti-X 293T cells (Takara) using the PureFection Transfection Reagent (System Biosciences) according to instructions provided by the manufacturer. Supernatants were collected on day 2 and 3 following transfection and concentrated 100-fold using Lenti-X Concentrator (Takara) according to the manufacturer's instructions. Viral suspensions were resuspended in RPMI-1640 medium supplemented with 10% FCS and 1% penicillin-streptomycin and frozen at −80° C. […]
Supernatants of triplicate wells were pooled and stored at −80° C. IFN-γ and IL-2 secretion was quantified by ELISA using kits from Biolegend (ELISA MAX Deluxe Set Human IFN-γ and ELISA MAX Deluxe Set Human IL-2, respectively), according to the manufacturer's instructions.

[5] = test system: acVHH-V104D/dfM1-2; assay: NanoBiT assay in Jurkat T cells, small molecule titration of acVHH-V104D/dfM1-2; type: cell-based, llama
Excerpt: as §1, §2

[6] = test system: acVHH-V104D/acVHH-M1; conditions: Jurkat T cells; compared with homodimeric switch acVHH-WT
Excerpt: as §1, §2

[7] = target: acVHH-V104D; conditions: read-out: binding affinity (KD) of caffeine to acVHH-V104D; SPR multi-cycle kinetics, steady state analysis; acVHH-V104D immobilised on CM5 chip
Description: A stock of 30 μg/mL protein ac VHH-V104D was prepared in 10 mM NaAc buffer of pH 5 and covalently immobilised on a CM5 chip (GE Healthcare) with a 300 sec contact time and 10 μL/min flow rate to reach 4 600 response units (RU). […] KD values were obtained by steady state analysis.

[8] = test system: acVHH-V104D+acVHH-M1; assay: Yeast display, small molecule-triggered heterodimerization acVHH-V104D + acVHH-M1; type: binding, llama; conditions: 500 nM soluble acVHH-V104D ± 10 μM compound
Description: (§3) Expression of the acVHH variants on yeast was induced by culturing the cells in SG-CAA medium (20 g/L galactose, 2 g/L glucose, 6.7 g/L yeast nitrogen base, 5 g/L bacto casamino acids, 10.2 g/L Na2HPO4*7 H2O, 8.56 g/L NaH2PO4*H2O) overnight at 20° C. and 180 rpm. Detection of full-length proteins on the surface of the cells was carried out by staining the cells with anti-c-myc AlexaFluor 488 (9E10, Thermo Fisher). […] After a washing step with PBSA, they were stained with an anti-HA-Alexa Fluor 488 (BioLegend) to gate for displaying yeast cells and the geometric mean fluorescence intensity (gMFI) of binding to acVHH-V104D, detected by co-staining with a Penta-His-Alexa Fluor 647 (Qiagen) (recognizing the His-tag on acVHH-V104D) was measured.
(§4) 56 clones of the library were sequenced as explained in Example 2. […] Their binding and affinity to soluble acVHH-V104D as well as full length display was assessed with yeast surface display as described in Example 2.
(§5) EC50 values were calculated like the KD values by fitting the gMFI binding values to a 1:1 binding interaction model (Zajc et al., Methods Mol Biology. 2022; 2491:155-173).

[9] = test system: acVHH-V104D+acVHH-M2; type: binding, llama; conditions: 500 nM soluble acVHH-V104D ± 10 μM compound
Description: as §3

[10] = test system: V104D+dfM1-2; conditions: 500 nM soluble acVHH-V104D ± 10 μM compound
Description: as §3, §4, §5

[11] = test system: V104D+dfM1-1; conditions: 500 nM soluble acVHH-V104D ± 10 μM compound
Description: as §3, §4, §5

[12] = compared with homodimeric switch acVHH-WT
[13] = increasing concentrations of theobromine

For `Cn1c(=O)c2c(ncn2C)n(C)c1=O` [caffeine], the “plasma levels of caffeine” value ([1]; absence of coffee, tea and chocolate consumption for 21 days, detection limit of the method) is given as under 500 nM, the “maximum plasma caffeine levels” value ([1]; after drinking one cup of coffee) is given as about 10 µM and the caffeine plasma levels ([1]; nonhabitual coffee drinkers after coffee abstinence for at least 16 hours) is given as 1.9 ± 1.6 µmol/L. For the same molecule, the “lysis of CD19-positive Jurkat T cells by split CAR T cells” value [2] was “caffeine-dependent cytotoxic activity”, the “EC50 for caffeine, V104D+dfM1-1, NanoBiT” value [3, 12] was “increased” and the “IFN-γ and IL-2 secretion of split CAR T cells” value [4] was “strong dependence”. For the same molecule, the “EC50 for caffeine, V104D+dfM1-2, NanoBiT” value [5, 12] was “increased”, the “EC50 for caffeine, V104D+M1, NanoBiT” value [6] was “increased” and the Kd [7] was 72.4 mM.

In the case of `Cn1c(=O)[nH]c2ncn(C)c2c1=O` [paraxanthine], the “triggering of heterodimerization acVHH-V104D/acVHH-M1” value [8] is reported as “can trigger” and the “triggering of heterodimerization acVHH-V104D/acVHH-M2” value [9] is reported as “can trigger”.

For `Cn1cnc2c1c(=O)[nH]c(=O)n2C` [theobromine], the “triggering of heterodimeric switch acVHH-V104D/dfM1-1” value [3, 13] was “can trigger”, the “triggering of heterodimerization acVHH-V104D/acVHH-M1” value [8] was “can trigger” and the “triggering of heterodimerization acVHH-V104D/acVHH-M2” value [9] was “can trigger”. For the same molecule, the “triggering of heterodimeric switch acVHH-V104D/dfM1-2” value [5, 13] was “can trigger”.

For `Cn1c(=O)c2[nH]cnc2n(C)c1=O` [theophylline], the “triggering of heterodimerization acVHH-V104D/acVHH-M1” value [8] was “can trigger; also recorded: can be triggered”, the “triggering of heterodimerization acVHH-V104D/acVHH-M2” value [9] was “can trigger” and the “triggering of heterodimerization acVHH-V104D/dfM1-2” value [10] was “can be triggered”. For the same molecule, the “triggering of heterodimerization acVHH-V104D/dfM1-1” value [11] was “can be triggered”.
